The source of these data is US20100137387A1, “BETA-KETO-AMIDE DERIVATIVES USEFUL AS ION CHANNEL MODULATORS” (NeuroSearch A/S, priority 2007, published 2010).

Experiment [1] deals with chloride channel. Kind of experiment: In vitro human erythrocyte chloride conductance. It is filed as cell-based. As to conditions: suspensions of human erythrocytes; from Cl- netfluxes and membrane potentials; read-out: KD-value (chloride channel blocking activity, membrane Cl-conductance). From the text: In this example the chloride channel blocking activity of an acetamide derivative representative of the invention, i.e. Compound 3 (3-(3,5-Bis-trifluoromethyl-phenyl)-3-oxo-N-[3-(1H-tetrazol-5-yl)-4′-trifluoromethoxy-biphenyl-4-yl]-propionamide), has been determined.
All dose-response experiments were therefore performed by concomitant measurements of conductive netfluxes of Cl^− (Jcl) and membrane potentials (Vm) in suspensions of erythrocytes as described by Bennekou et al. (Bennekou P and Christophersen P: Flux ratio of Valinomycin-Mediated K^+ Fluxes across the Human Red Cell Membrane in the presence of the Protronophore CCCP; J. Membrane Biol. 1986 93 221-227).
The membrane Cl-conductances (GCl) were calculated according to Hodgkin et al. (Hodgkin A L and Huxley A F: The components of membrane conductance in the giant axon of Loligo; J. Physiol. Lond. 1952 116 449-472) using the following equation: […]
where F is the Faraday constant and ECl is the Nernst potential for the Cl-ion.

In experiment [2] the target is T1, BK channels (Homo sapiens, UniProt Q12791).
T1 construct: expressed in transfected cells; host or cells: Xenopus laevis oocytes
Kind of experiment: BK channel activation, two-electrode voltage clamp in Xenopus laevis oocytes. It is filed as cell-based. As to conditions: BK channels heterologously expressed in Xenopus laevis oocytes, 0.01-31.6 μM compound. The method, then:
In this example the BK channel opening activity of Compound 4 (i.e. N-[5-Chloro-2-(1H-tetrazol-5-yl)-phenyl]-3-(4-chloro-3-trifluoromethyl-phenyl)-3-oxo-propionamide) is determined using BK channels heterologously expressed in Xenopus laevis oocytes.
The electrical current through the BK channel is measured using conventional two-electrode voltage clamp. BK currents are activated by repeating ramp protocols. In brief, the membrane potential is continuously changed from −120 mV to +120 mV within 2 s. The threshold for BK activation is approximately +30 mV under control conditions. Compounds are applied for 100 s during which the ramp protocol is repeated 10 times with 10 s intervals. In between the ramp protocols the membrane potential is clamped at −80 mV. […]
In order to evaluate the ability of the compounds to shift the BK activation curve towards lower membrane potentials, the BK current was transformed into conductance by using Ohm's law g=I/(Ememb−Erev), where g is the conductance, I is the current, Ememb is the membrane potential and Erev is the reversal potential. […] The control conductance level at a membrane potential of +100 mV was calculated, and the compound effect was evaluated as the potential difference, ΔV, to the membrane potential at which the same conductance level was obtained in the presence of compound. […]
(In general: Two-electrode voltage clamp holds a large cell at a set potential and records current.)

The Kd is the equilibrium constant for the complex coming apart.

T1 sequence (Q12791 whole entry): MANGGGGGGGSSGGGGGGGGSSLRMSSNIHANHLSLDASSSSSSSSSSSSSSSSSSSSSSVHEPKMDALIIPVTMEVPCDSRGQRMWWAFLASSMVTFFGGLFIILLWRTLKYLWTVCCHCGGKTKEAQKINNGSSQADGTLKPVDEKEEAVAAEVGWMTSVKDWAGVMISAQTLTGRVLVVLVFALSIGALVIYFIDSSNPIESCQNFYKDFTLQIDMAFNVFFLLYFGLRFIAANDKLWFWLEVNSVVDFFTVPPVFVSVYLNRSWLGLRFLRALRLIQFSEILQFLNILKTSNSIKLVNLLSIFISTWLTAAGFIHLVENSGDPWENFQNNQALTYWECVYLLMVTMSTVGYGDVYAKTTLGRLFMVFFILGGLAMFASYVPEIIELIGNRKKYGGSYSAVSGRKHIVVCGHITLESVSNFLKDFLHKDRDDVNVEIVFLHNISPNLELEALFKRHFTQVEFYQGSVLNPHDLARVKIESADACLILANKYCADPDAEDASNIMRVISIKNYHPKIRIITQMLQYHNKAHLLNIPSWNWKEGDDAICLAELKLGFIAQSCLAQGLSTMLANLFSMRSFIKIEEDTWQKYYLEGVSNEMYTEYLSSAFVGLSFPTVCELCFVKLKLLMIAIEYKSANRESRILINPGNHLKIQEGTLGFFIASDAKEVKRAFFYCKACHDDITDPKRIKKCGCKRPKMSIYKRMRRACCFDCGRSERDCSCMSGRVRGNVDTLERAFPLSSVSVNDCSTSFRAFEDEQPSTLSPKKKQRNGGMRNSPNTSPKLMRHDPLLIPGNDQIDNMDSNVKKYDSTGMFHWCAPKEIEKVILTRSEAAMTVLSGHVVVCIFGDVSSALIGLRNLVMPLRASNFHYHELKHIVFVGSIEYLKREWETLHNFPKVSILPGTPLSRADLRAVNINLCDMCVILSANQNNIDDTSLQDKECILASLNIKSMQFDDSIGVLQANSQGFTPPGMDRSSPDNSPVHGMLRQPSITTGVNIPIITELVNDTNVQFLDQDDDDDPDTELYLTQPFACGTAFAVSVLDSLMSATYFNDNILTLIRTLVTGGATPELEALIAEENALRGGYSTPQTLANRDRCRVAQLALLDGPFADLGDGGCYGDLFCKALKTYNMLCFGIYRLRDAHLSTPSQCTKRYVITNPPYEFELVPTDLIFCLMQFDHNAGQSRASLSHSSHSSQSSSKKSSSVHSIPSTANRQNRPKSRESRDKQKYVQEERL

For `O=C(CC(=O)c1cc(C(F)(F)F)cc(C(F)(F)F)c1)Nc1ccc(-c2ccc(OC(F)(F)F)cc2)cc1-c1nnn[nH]1` [Compound 3, 3-(3,5-Bis-trifluoromethyl-phenyl)-3-oxo-N-[3-(1H-tetrazol-5-yl)-4′-trifluoromethoxy-biphenyl-4-yl]-propionamide], the Kd in experiment [1] was 210 nM. Consider `O=C(CC(=O)c1ccc(Cl)c(C(F)(F)F)c1)Nc1cc(Cl)ccc1-c1nnn[nH]1` [Compound 4, N-[5-Chloro-2-(1H-tetrazol-5-yl)-phenyl]-3-(4-chloro-3-trifluoromethyl-phenyl)-3-oxo-propionamide], for which the “ΔVmax (maximal left shift of the BK activation curve)” value in experiment [2] (fitted to sigmoidal logistic equation) is reported as −123 mV. Also, the EC50 in experiment [2] (ΔV vs. control conductance at +100 mV, read-out: EC50 for the left-shift of the BKCa-activation curve) turned out to be 1800 nM.
